Experimental data as given in patent US7273848B2, “Apolipoprotein A-I agonists and their use to treat dyslipidemic disorders” (priority 1997, dated 2007).
Non-standard residues stand in square brackets, D forms with d. Residues, ends and D or L forms follow the SMILES beside them. No end group written: not given here. Orn = NCCC[C@H](N)C(=O)O; Aib = CC(C)(N)C(=O)O

Target: T1, LCAT (purified from human plasma) (Homo sapiens, UniProt P04180)
T1 construct: from tissue; host or cells: human plasma
T1 sequence (P04180 25-440): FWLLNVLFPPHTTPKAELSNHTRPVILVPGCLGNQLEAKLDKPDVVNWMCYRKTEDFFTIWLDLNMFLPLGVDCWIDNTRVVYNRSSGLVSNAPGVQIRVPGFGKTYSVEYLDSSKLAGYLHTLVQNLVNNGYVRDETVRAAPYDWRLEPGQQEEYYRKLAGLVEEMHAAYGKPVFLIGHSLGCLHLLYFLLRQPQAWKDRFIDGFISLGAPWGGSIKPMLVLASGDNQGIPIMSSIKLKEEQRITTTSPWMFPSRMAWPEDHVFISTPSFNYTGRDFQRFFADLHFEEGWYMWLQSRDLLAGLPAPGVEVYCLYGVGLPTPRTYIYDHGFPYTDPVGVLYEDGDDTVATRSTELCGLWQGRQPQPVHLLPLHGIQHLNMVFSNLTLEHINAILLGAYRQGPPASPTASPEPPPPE
Assay: LCAT activation assay
Type: biochemical
Settings: LCAT activation as compared with native human ApoA-I (= 100%), equivalent masses
Method: The peptides synthesized as described in Section 6, supra, were analyzed in vitro for their ability to activate LCAT. In the LCAT assay, substrate vesicles (small unilamellar vesicles or “SUVs”) composed of egg phophatidylcholine (EPC) or 1-Palmitoyl-2-oleyl-phosphatidyl-choline (POPC) and radiolabelled cholesterol are preincubated with equivalent masses either of peptide or ApoA-I (isolated from human plasma). The reaction is initiated by addition of LCAT (purified from human plasma). Native ApoA-I, which was used as positive control, represents 100% activation activity. “Specific activity” (i.e., units of activity (LCAT activation)/unit of mass) of the peptides can be calculated as the concentration of peptide that achieves maximum LCAT activation. For example, a series of concentrations of the peptide (e.g., a limiting dilution) can be assayed to determine the “specific activity” for the peptide—the concentration which achieves maximal LCAT activation (i.e., percentage conversion of cholesterol to cholesterol ester) at a specific timepoint in the assay (e.g., 1 hr.). When plotting percentage conversion of cholesterol at, e.g., 1 hr., against the concentration of peptide used, the “specific activity” can be identified as the concentration of peptide that achieves a plateau on the plotted curve.
The vesicles used in the LCAT assay are SUVs composed of egg phosphatidylcholine (EPC) or 1-palmitoyl-2-oleyl-phosphatidylcholine (POPC) and cholesterol with a molar ratio of 20:1. To prepare a vesicle stock solution sufficient for 40 assays, 7.7 mg EPC (or 7.6 mg POPC; 10 μmol), 78 μg (0.2 μmol) 4-^14C-cholesterol, 116 μg cholesterol (0.3 μmol) are dissolved in 5 ml xylene and lyophilized. Thereafter 4 ml of assay buffer is added to the dry powder and sonicated under nitrogen atmosphere at 4° C. Sonication conditions: Branson 250 sonicator, 10 mm tip, 6×5 minutes; Assay buffer: 10 mM Tris, 0.14 M NaCl, 1 mM EDTA, pH 7.4). The sonicated mixture is centrifuged 6 times for 5 minutes each time at 14,000 rpm (16,000×g) to remove titanium particles. The resulting clear solution is used for the enzyme assay.
For the LCAT purification, dextran sulfate/Mg^2+ treatment of human plasma is used to obtain lipoprotein deficient serum (LPDS), which is sequentially chromatographed on Phenylsepharose, Affigelblue, ConcanavalinA sepharose and anti-ApoA-I affinity chromatography, as summarized for a representative purification in TABLE IX, below: […]

Row | Compound | ACTIVITY (%) LCAT
1 | CC(C)C[C@H](NC(=O)[C@H](C)NC(=O)[C@H](CCC(=O)O)NC(=O)[C@H](CC(C)C)NC(=O)C(C)(C)NC(=O)[C@H](CC(C)C)NC(=O)[C@H](CC(N)=O)NC(=O)[C@H](CC(C)C)NC(=O)[C@H](CC(C)C)NC(=O)[C@H](CCC(=O)O)NC(=O)[C@H](CCCNC(=N)N)NC(=O)[C@H](Cc1ccccc1)NC(=O)[C@H](CC(C)C)NC(=O)[C@H](CC(=O)O)NC(=O)[C@H](CC(C)C)NC(=O)[C@@H](NC(=O)[C@@H]1CCCN1)C(C)C)C(=O)N[C@@H](CCCCN)C(=O)N[C@@H](CCC(=O)O)C(=O)N[C@@H](CCCCN)C(=O)N[C@@H](CC(C)C)C(=O)N[C@@H](CCCCN)C(=O)O [compound 102, PVLDLFRELLNLXLEALKEKLK] (H-PVLDLFRELLNL[Aib]LEALKEKLK-OH) | 2%
2 | PVLELFKELLEELKQKLK [compound 216] | 35%
3 | Ac-PALELFKDLLEEFRQRLK-NH2 [compound 213] | 42%
4 | Ac-PLLDLFKELLEELKQKLK-NH2 [compound 201] | 74%
5 | CC(C)C[C@H](NC(=O)[C@H](C)NC(=O)[C@H](CC(=O)O)NC(=O)[C@H](CC(C)C)NC(=O)[C@H](CC(C)C)NC(=O)[C@H](CCCNC(=N)N)NC(=O)[C@H](CCC(=O)O)NC(=O)[C@H](CC(C)C)NC(=O)[C@H](CC(C)C)NC(=O)[C@H](CC(N)=O)NC(=O)[C@H](CCC(=O)O)NC(=O)[C@H](Cc1ccccc1)NC(=O)[C@H](CC(C)C)NC(=O)[C@H](CCC(=O)O)NC(=O)[C@H](CC(C)C)NC(=O)[C@@H](NC(=O)[C@@H]1CCCN1)C(C)C)C(=O)N[C@@H](CCC(N)=O)C(=O)N[C@@H](CCCN)C(=O)N[C@@H](CCCN)C(=O)N[C@@H](CC(C)C)C(=O)N[C@@H](CCCN)C(=O)O [compound 185, PVLELFENLLERLLDALQOOLO] (H-PVLELFENLLERLLDALQ[Orn][Orn]L[Orn]-OH) | 3%
6 | AVLELFENLLERLLDALQKKLK [peptide 153] | 49%
7 | PVLDLFRELLNELLELLKQKLK [compound 127] | 47%
8 | CC(C)C[C@@H](NC(=O)[C@@H](C)NC(=O)[C@@H](CC(=O)O)NC(=O)[C@@H](CC(C)C)NC(=O)[C@@H](CC(C)C)NC(=O)[C@@H](CCCNC(=N)N)NC(=O)[C@@H](CCC(=O)O)NC(=O)[C@@H](CC(C)C)NC(=O)[C@@H](CC(C)C)NC(=O)[C@@H](CC(N)=O)NC(=O)[C@@H](CCC(=O)O)NC(=O)[C@@H](Cc1ccccc1)NC(=O)[C@@H](CC(C)C)NC(=O)[C@@H](CCC(=O)O)NC(=O)[C@@H](CC(C)C)NC(=O)[C@H](NC(=O)[C@H]1CCCN1)C(C)C)C(=O)N[C@H](CCC(N)=O)C(=O)N[C@H](CCCCN)C(=O)N[C@H](CCCCN)C(=O)N[C@H](CC(C)C)C(=O)N[C@H](CCCCN)C(=O)O [compound 174, pvlelfenllerlldalqkklk] (H-[dP][dV][dL][dE][dL][dF][dE][dN][dL][dL][dE][dR][dL][dL][dD][dA][dL][dQ][dK][dK][dL][dK]-OH) | 13%
9 | Ac-PVLDFFRELLEELKQKLK-NH2 [compound 204] | 63%
10 | LVLDLFRELLNELLEALKQKLK [compound 59] | 17%
11 | CC(C)C[C@H](NC(=O)[C@H](C)NC(=O)[C@H](CCC(=O)O)NC(=O)[C@H](CC(C)C)NC(=O)C(C)(C)NC(=O)[C@H](CCC(=O)O)NC(=O)[C@H](CC(N)=O)NC(=O)[C@H](CC(C)C)NC(=O)[C@H](CC(C)C)NC(=O)[C@H](CCC(=O)O)NC(=O)[C@H](CCCNC(=N)N)NC(=O)[C@H](Cc1ccccc1)NC(=O)[C@H](CCCCN)NC(=O)[C@H](CC(=O)O)NC(=O)[C@H](CC(C)C)NC(=O)[C@@H](NC(=O)[C@@H]1CCCN1)C(C)C)C(=O)N[C@@H](CCCCN)C(=O)N[C@@H](CCC(N)=O)C(=O)N[C@@H](CCCCN)C(=O)N[C@@H](CC(C)C)C(=O)N[C@@H](CCCCN)C(=O)O [compound 88, PVLDKFRELLNEXLEALKQKLK] (H-PVLDKFRELLNE[Aib]LEALKQKLK-OH) | 7%
12 | CC(C)C[C@H](NC(=O)[C@H](C)NC(=O)[C@H](CCC(=O)O)NC(=O)[C@H](CC(C)C)NC(=O)[C@H](CC(C)C)NC(=O)[C@H](CCC(=O)O)NC(=O)[C@H](CC(N)=O)NC(=O)[C@H](CC(C)C)NC(=O)[C@H](CC(C)C)NC(=O)[C@H](CCC(=O)O)NC(=O)[C@H](CCCNC(=N)N)NC(=O)[C@H](Cc1ccccc1)NC(=O)[C@H](CC(C)C)NC(=O)[C@H](CC(=O)O)NC(=O)[C@H](CC(C)C)NC(=O)[C@H](NC(=O)[C@H]1CCCN1)C(C)C)C(=O)N[C@@H](CCCCN)C(=O)N[C@@H](CCC(N)=O)C(=O)N[C@@H](CCCCN)C(=O)N[C@@H](CC(C)C)C(=O)N[C@@H](CCCCN)C(=O)O [compound 48] | 22%
13 | PVLDLFERLLNELLEALQKKLK [compound 80] | 9%
14 | PVLDLFRELGNELLEALKQKLK [peptide 9] | 83%
15 | CC(C)C[C@H](NC(=O)[C@H](C)NC(=O)[C@H](CCC(=O)O)NC(=O)[C@H](CO)NC(=O)C(C)(C)NC(=O)[C@H](CCC(=O)O)NC(=O)[C@H](CC(N)=O)NC(=O)[C@H](CC(C)C)NC(=O)[C@H](CCCCN)NC(=O)[C@H](CCC(=O)O)NC(=O)[C@H](CCCNC(=N)N)NC(=O)[C@H](Cc1ccccc1)NC(=O)[C@H](CCC(=O)O)NC(=O)[C@H](CC(=O)O)NC(=O)[C@H](CC(C)C)NC(=O)[C@@H](NC(=O)[C@@H]1CCCN1)C(C)C)C(=O)N[C@@H](CCCCN)C(=O)N[C@@H](CCC(N)=O)C(=O)N[C@@H](CCCCN)C(=O)N[C@@H](CC(C)C)C(=O)N[C@@H](CCCCN)C(=O)O [compound 112, PVLDEFREKLNEXSEALKQKLK] (H-PVLDEFREKLNE[Aib]SEALKQKLK-OH) | 0%
16 | Ac-DVLDLFRELLEELKQKLK-NH2 [compound 221] | 12%
17 | CC(C)C[C@H](NC(=O)[C@H](C)NC(=O)[C@H](CCC(=O)O)NC(=O)[C@H](CC(C)C)NC(=O)C(C)(C)NC(=O)[C@H](CCC(=O)O)NC(=O)[C@H](CC(N)=O)NC(=O)[C@H](CC(C)C)NC(=O)[C@H](CCCCN)NC(=O)[C@H](CCC(=O)O)NC(=O)[C@H](CCCNC(=N)N)NC(=O)[C@H](Cc1ccccc1)NC(=O)[C@H](CCC(=O)O)NC(=O)[C@H](CC(=O)O)NC(=O)[C@H](CC(C)C)NC(=O)[C@H](CCCCN)NC(=O)[C@@H]1CCCN1)C(=O)N[C@@H](CCCCN)C(=O)N[C@@H](CCC(N)=O)C(=O)N[C@@H](CCCCN)C(=O)N[C@@H](CC(C)C)C(=O)N[C@@H](CCCCN)C(=O)O [compound 115, PKLDEFREKLNEXLEALKQKLK] (H-PKLDEFREKLNE[Aib]LEALKQKLK-OH) | 0%
18 | PVLDLFREGLNELLEALKQKLK [compound 20] | 57%
19 | VLDLFRELLNEGLEALKQKLK [compound 47] | 23%
20 | CC(C)C[C@H](NC(=O)[C@H](C)NC(=O)[C@H](CCC(=O)O)NC(=O)[C@H](CC(C)C)NC(=O)C(C)(C)NC(=O)[C@H](CCC(=O)O)NC(=O)[C@H](CC(N)=O)NC(=O)[C@H](CC(C)C)NC(=O)[C@H](CCCCN)NC(=O)[C@H](CCC(=O)O)NC(=O)[C@H](CCCNC(=N)N)NC(=O)[C@H](Cc1ccccc1)NC(=O)[C@H](CCC(=O)O)NC(=O)[C@H](CC(=O)O)NC(=O)[C@H](CC(C)C)NC(=O)[C@H](CCC(=O)O)NC(=O)[C@@H]1CCCN1)C(=O)N[C@@H](CCCCN)C(=O)N[C@@H](CCC(N)=O)C(=O)N[C@@H](CCCCN)C(=O)N[C@@H](CC(C)C)C(=O)N[C@@H](CCCCN)C(=O)O [compound 117, PELDEFREKLNEXLEALKQKLK] (H-PELDEFREKLNE[Aib]LEALKQKLK-OH) | 0%
21 | DWFKAFYDKFFEKFKEFF [peptide 247, reference compound] | 3%
